From US20230203043A1, “NOVEL IMIDAZOPYRAZINE DERIVATIVES” (Hoffmann-La Roche Inc., priority 2020, published 2023)
Where a name gives a salt, the structure may show the parent alone. Read-outs that look alike come from different tables or passages of the source.

Test system: Acinetobacter baumannii ATCC17961
Test: Antimicrobial susceptibility testing: 90% growth inhibitory concentration (IC90) determination in Iso-Sensitest broth, OD600 growth
Assay type: cell-based
Conditions: Acinetobacter baumannii, ATCC17961, 16 h
Outline: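 OD600 read every 20 min for 16 h at 35±2° C; inhibition taken in log phase to derive IC90. Twofold, 10-point dilutions (e.g. 50–0.097 μM final), inoculum ~5×10^(5) CFU/ml.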

[1] = strain ATCC 17961, OD600 growth over 16 h, read-out: A. baumannii ATCC 17961 IC90
[2] = read-out: A. baumannii ATCC 17961 IC90 (uM), strain ATCC 17961, OD600 growth over 16 h

Row | SMILES | IC90 [1] | IC90 [2]
1 | CCc1cc(Nc2nccn3c(-c4cn(CC(F)F)nc4C(F)F)cnc23)ccc1C(=O)N1CCN(C(=O)C2(O)CCNCC2)CC1 [Example 764, (4-(4-((3-(1-(2,2-difluoroethyl)-3-(difluoromethyl)-1H-pyrazol-4-yl)imidazo[1,2-a]pyrazin-8-yl)amino)-2-ethylbenzoyl)piperazin-1-yl)(4-hydroxypiperidin-4-yl)methanone] | 0.809 µM | 
2 | CCc1cc(Nc2nccn3c(-c4cn(C5CCC5)nc4C(F)(F)F)cnc23)ccc1C(=O)NCC1CC1N (stereo not shown) [Example 671, N-((2-aminocyclopropyl)methyl)-4-((3-(1-cyclobutyl-3-(trifluoromethyl)-1H-pyrazol-4-yl)imidazo[1,2-a]pyrazin-8-yl)amino)-2-ethylbenzamide formate] |  | 0.309 µM
3 | CCc1cc(Nc2nccn3c(-c4c[nH]nc4C(F)(F)F)cnc23)ccc1C(=O)NCCNC(=O)CCN [Example 220, N-[2-(3-aminopropanoylamino)ethyl]-2-ethyl-4-[[3-[3-(trifluoromethyl)-1H-pyrazol-4-yl]imidazo[1,2-a]pyrazin-8-yl]amino]benzamide formate] |  | 0.51 µM
4 | CN(C)CCNC(=O)CNC(=O)c1ccc(Nc2nccn3c(-c4c[nH]nc4C(F)(F)F)cnc23)cc1Cl [Example 165, 2-chloro-N-[2-[2-(dimethylamino)ethylamino]-2-oxoethyl]-4-[[3-[3-(trifluoromethyl)-1H-pyrazol-4-yl]imidazo[1,2-a]pyrazin-8-yl]amino]benzamide formate] |  | 2.52 µM
5 | CCc1cc(Nc2nccn3c(-c4c[nH]nc4C(F)(F)F)cnc23)ccc1C(=O)NCCNC(=O)[C@@H]1CC[C@@H](N)C1 [Example 586, N-[2-[[(1R,3R)-3-aminocyclo-pentanecarbonyl]amino]ethyl]-2-ethyl-4-[[3-[3-(trifluoromethyl)-1H-pyrazol-4-yl]imidazo[1,2-a]pyrazin-8-yl]amino]benzamide formate] |  | 0.434 µM
6 | CCc1cc(Nc2nccn3c(-c4cn(CC(F)F)nc4C(F)F)cnc23)ccc1C(=O)N[C@H]1C[C@@H](NC(=O)[C@@H]2C[C@@H](O)CN2)C1 [Example 552, (2S,4R)-N-((1s,3R)-3-(4-((3-(1-(2,2-difluoroethyl)-3-(difluoromethyl)-1H-pyrazol-4-yl)imidazo[1,2-a]pyrazin-8-yl)amino)-2-ethylbenzamido)cyclobutyl)-4-hydroxypyrrolidine-2-carboxamide] | 0.489 µM | 

Further lines, with some results ahead:

Row | IC90 [1] | SMILES | IC90 [2]
7 | 0.325 µM | N[C@H]1C[C@@H](NC(=O)N2CCN(C(=O)c3ccc(Nc4nccn5c(-c6cn(CC(F)F)nc6C(F)(F)F)cnc45)cc3Cl)CC2)C1 [Example 585, N-((1s,3s)-3-aminocyclobutyl)-4-(2-chloro-4-((3-(1-(2,2-difluoroethyl)-3-(trifluoromethyl)-1H-pyrazol-4-yl)imidazo[1,2-a]pyrazin-8-yl)amino)benzoyl) piperazine-1-carboxamide formate] | 
8 | 0.179 µM | Cc1cc(Nc2nccn3c(-c4cn(CC#N)nc4C(F)(F)F)cnc23)ccc1S(C)(=O)=NCCCN (stereo not shown) [Example 597, 2-[4-[8-[4-[N-(3-aminopropyl)-S-methyl-sulfonimidoyl]-3-methyl-anilino]imidazo[1,2-a]pyrazin-3-yl]-3-(trifluoromethyl)pyrazol-1-yl]acetonitrile] | 
9 | 0.322 µM | CCc1cc(Nc2nccn3c(-c4cn(CC(F)F)nc4C(F)(F)F)cnc23)ccc1C(=O)NCC(=O)N1CCNCC1 [Example 679, 4-[[3-[1-(2,2-difluoroethyl)-3-(trifluoromethyl)pyrazol-4-yl]imidazo[1,2-a]pyrazin-8-yl]amino]-2-ethyl-N-(2-oxo-2-piperazin-1-yl-ethyl) benzamide formate] | 
10 | 0.224 µM | N#CCn1cc(-c2cnc3c(Nc4ccc(C(=O)NCC(=O)N5CCNCC5)c(Cl)c4)nccn23)c(C(F)(F)F)n1 [Example 501, 2-chloro-4-[[3-[1-(cyanomethyl)-3-(trifluoromethyl)pyrazol-4-yl]imidazo[1,2-a]pyrazin-8-yl]amino]-N-(2-oxo-2-piperazin-1-yl-ethyl)benzamide formate] | 
